Patent publication US20090093054A1, “CRYOPRESERVATION OF HUMAN BLASTOCYST-DERIVED STEM CELLS BY USE OF A CLOSED STRAW VITRIFICATION METHOD” (Cellartis AB, priority 2003, published 2009)
Several values for one entry are separate records, joined by “and”; a condition that tells them apart may be missing. Identical values can stand only once.

Columns and labels:
Human BS cell line SA121 = test: Thawing recovery after closed straw vitrification and devitrification, cell line SA121; format: cell-based; details: for Thawing recovery, trehalose compared with sucrose: same molar concentration in vitrification and devitrification medium; for Thawing recovery: viable thawed colonies / hBS cell pieces originally vitrified, per individual closed straw, 48 h after seeding on MEF, sugar in vitrification and devitrification medium, same molar concentration for both; for Thawing recovery (SA121): viable colonies / pieces vitrified per closed straw, 48 h after seeding
Description: Two solutions A and B are prepared (Solution A: Sterile filtered 10% Ethylene glycol, 10% DMSO in Cryo-PBS; Solution B: Sterile filtered 0.3M Trehalose, 20% Ethylene glycol, 10% DMSO in Cryo-PBS) Selected colonies of human blastocyst-derived stem cells, which display proper morphology, are cut in the same way as when the cells are cut for regular passage using a stem cell cutting tool (Swemed Labs International, BilIdal, Sweden). The cell pieces should be about 0.1-0.4 mm×0.1-0.4 mm in size. The cell pieces are incubated first in 500 μl preheated (37° C.) Solution A for 1 min and then transferred to 25 μl Solution B and incubated for 30 s and then transferred again to a fresh drop of Solution B and incubated for 30 s. The volume is about 40-50 μl. About 10 cell pieces are aspirated into a straw prepared for vitrification and the straw is then closed with a bond. The straw is plunged into liquid nitrogen.
Two solutions C and D are prepared (Solution C: Sterile filtered 0.2M Trehalose in Cryo-PBS.; Solution D: Sterile filtered 0.1 M Trehalose in Cryo-PBS). Solutions C and D and hBS-medium are preheated at 37° C. A closed straw containing vitrified hBS cells (about 10 cell pieces) is removed from the liquid nitrogen tank. The straw is keep at room temperature for 10 s and then quickly thawed in a 40° C. water bath (within seconds). The straw is cut open in the plugged end using an autoclaved pair of scissors and the content pushed out from the straw into solution C using a syringe. The hBS cells are incubated for 1 min in 500 μl solution C and the transferred to 500 μl solution D and incubated for 5 min. Under a stero-microscope the hBS cell pieces are quickly rinsed in hBS medium and then seeded in a culture dish on top of mouse embryonic feeder cells in hBS medium. The cells are then cultured (incubated at 37° C.) and the number of established new colonies are counted and passaged in order to verify the viability of the hBS cells after vitrification. The recovery of viable cells following this vitrifying and thawing procedures is normally in the range of 70-100%.
Human BS cells (cell line SA121) were vitrified and thawed either following the procedure described in Example 1 & 2 or following the procedure described in Example 1 and 2 with the exception that trehalose was used in the vitrification and devitrification medium was replaced by sucrose in the same molar concentration as used for trehalose. Forty-eight hours after seeding in culture dishes on top of mouse embryonic feeder cells the hBS cell colonies were evaluated and counted. The thawing recovery was calculated as the ratio between the number of viable thawed colonies (displaying appropriate hBS cell morphology) and the number of hBS cell pieces originally vitrified. […]
Human BS cells (cell line SA121) were vitrified and thawed following the procedure described in Example 1 & 2 with the exception that trehalose was used in two different concentrations (0.3M and 0.5M) in the second vitrification solution (solution B). When 0.3 M trehalose was used in solution B, solution C contained 0.2 M trehalose and solution D contained 0.1 M trehalose. When 0.5 M trehalose was used in solution B, solution C contained 0.4 M trehalose and solution D contained 0.2 M trehalose. Forty-eight hours after seeding in culture dishes on top of mouse embryonic feeder cells the hBS cell colonies were evaluated and counted. The thawing recovery was calculated as the ratio between the number of viable thawed colonies (displaying appropriate hBS cell morphology) and the number of hBS cell pieces originally vitrified. Two separate experiments using two different human BS cell lines were performed. Three straws were prepared and evaluated per cell line and the results are presented below for each individual straw.

Human BS cell line SA002 = test: Thawing recovery after closed straw vitrification and devitrification, cell line SA002; format: cell-based; details: viable colonies / pieces vitrified per closed straw, 48 h after seeding
[1] = 0.3M trehalose in solution B (C 0.2 M, D 0.1 M)
[2] = 0.5M trehalose in solution B (C 0.4 M, D 0.2 M)

Structure (SMILES) | Thawing recovery, trehalose compared with sucrose (Human BS cell line SA121; result in words) | Thawing recovery (Human BS cell line SA121) | Thawing recovery (SA121) (Human BS cell line SA121; [1]) | Thawing recovery (SA121) (Human BS cell line SA121; [2]) | Thawing recovery, 0.5 M compared with 0.3 M trehalose in solution B (Human BS cell line SA121; cell lines SA121 and SA002, result in words) | Thawing recovery (SA002) (Human BS cell line SA002; [1]) | Thawing recovery (SA002) (Human BS cell line SA002; [2])
OC[C@H]1O[C@@](CO)(O[C@H]2O[C@H](CO)[C@@H](O)[C@H](O)[C@H]2O)[C@@H](O)[C@@H]1O [Sucrose] | no significant difference | 8/10 and 5/10 and 9/10 |  |  |  |  | 
OC[C@H]1O[C@H](O[C@H]2O[C@H](CO)[C@@H](O)[C@H](O)[C@H]2O)[C@H](O)[C@@H](O)[C@@H]1O [Trehalose] | no significant difference | 5/9 and 8/10 and 6/10 | 6/10 and 5/10 | 8/10 and 9/10 and 8/8 | seems to work better | 5/8 and 6/8 and 7/7 | 7/8 and 8/8 and 5/7
